In PMC6857671 (Chemical Science, 2019):

Tested on: HeLa cells
Assay: Confocal microscopic analysis of cellular location of DOX and 36
Format: cell-based
Conditions: 10 µM, 3 h, 37 °C, fluorescence confocal microscopy

Question: With `COc1cccc2c1C(=O)c1c(O)c3c(c(O)c1C2=O)C[C@@](O)(C(=O)CO)C[C@@H]3O[C@H]1C[C@H](N)[C@H](O)[C@H](C)O1` [DOX, Doxorubicin] as the compound, how does the “cellular location of DOX fluorescence, no irradiation” value read?
Answer: efficiently transported to the nucleus
